Results published in patent US6737383B1, “Herbicidal oxadiazolidines” (priority 1999, dated 2004).

Columns and labels:
[1] = test system: bedstraw; assay: Test B pre/postemergence bedstraw; format: in vivo, Galium aparine
Summary of the method: (§1)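 Test chemicals in a non-phytotoxic solvent mixture with surfactant were sprayed preemergence onto planted seeds and postemergence onto plants 2 to 18 cm tall (1- to 4-leaf stage). After twelve to sixteen days in a greenhouse, injury was visually rated against untreated controls from 0 (no effect) to 10 (complete control).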

[2] = test system: blackgrass; assay: Test B pre/postemergence blackgrass; format: in vivo, Alopecurus myosuroides
Summary of the method: as §1

[3] = test system: surinam grass; assay: Test B pre/postemergence surinam grass; format: in vivo, Brachiaria decumbens
Summary of the method: as §1

[4] = test system: cocklebur; assay: Test B pre/postemergence cocklebur; format: in vivo, Xanthium strumarium
Summary of the method: as §1

[5] = test system: corn; assay: Test B pre/postemergence corn; format: in vivo, Zea mays
Summary of the method: as §1

[6] = test system: crabgrass; assay: Test B pre/postemergence crabgrass; format: in vivo, Digitaria sanguinalis
Summary of the method: as §1

[7] = test system: giant foxtail; assay: Test B pre/postemergence giant foxtail; format: in vivo, Setaria faberii
Summary of the method: as §1

[8] = test system: pigweed; assay: Test B pre/postemergence pigweed; format: in vivo, Amaranthus retroflexus
Summary of the method: as §1

[9] = test system: soybean; assay: Test B pre/postemergence soybean; format: in vivo, Glycine max
Summary of the method: as §1

[10] = test system: sugar beet; assay: Test B pre/postemergence sugar beet; format: in vivo, Beta vulgaris
Summary of the method: as §1

[11] = test system: velvetleaf; assay: Test B pre/postemergence velvetleaf; format: in vivo, Abutilon theophrasti
Summary of the method: as §1

[12] = test system: wild oat; assay: Test B pre/postemergence wild oat; format: in vivo, Avena fatua
Summary of the method: as §1

[13] = test system: purple nutsedge; assay: Test B pre/postemergence purple nutsedge; format: in vivo, Cyperus rotundus
Summary of the method: as §1

[14] = test system: rice; assay: Test B flood test rice; format: in vivo, Oryza sativa
Summary of the method: (§2)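 Read-out is a visual response score from 0 (no effect) to 10 (complete control), assigned by comparison with untreated controls. Treatment was applied at the 2-leaf stage, and plants stayed in the greenhouse for twelve to sixteen days before scoring.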

[15] = test system: smallflower flatsedge; assay: Test B flood test smallflower flatsedge; format: in vivo, Cyperus difformis
Summary of the method: as §2

[16] = test system: bamyardgrass; assay: Test B flood test barnyardgrass; format: in vivo, Echinochloa crus-galli
Summary of the method: as §2

[17] = Preemergence, Rate 250 g/ha, scale of 0 to 10 where 0 is no effect and 10 is complete control
[18] = Preemergence, Rate 500 g/ha, scale of 0 to 10 where 0 is no effect and 10 is complete control
[19] = Rate 62 g/ha, Postemergence, scale 0 to 10 (0 no effect, 10 complete control)
[20] = Rate 125 g/ha, Postemergence, scale of 0 to 10 where 0 is no effect and 10 is complete control
[21] = Rate 250 g/ha, Postemergence, scale of 0 to 10 where 0 is no effect and 10 is complete control
[22] = Rate 500 g/ha, Postemergence, scale 0 to 10, 0 no effect, 10 complete control
[23] = Preemergence, Rate 62 g/ha, scale of 0 to 10 where 0 is no effect and 10 is complete control
[24] = Rate 62 g/ha, headed Pre-emergence (flood test species), scale 0 to 10 (0 no effect, 10 complete control)
[25] = Rate 125 g/ha, Pre-emergence, flood test species, scale 0 to 10 where 0 is no effect and 10 is complete control
[26] = Rate 250 g/ha, Pre-emergence, flood-test species, scale 0 to 10, 0 is no effect, 10 is complete control
[27] = Rate 500 g/ha, Pre-emergence, flood test species, scale 0 to 10 (0 no effect, 10 complete control)

**Q.** Which results are given for `Cc1ccccc1-n1c(=O)on(C(=O)N(c2ccc(OC(F)(F)F)cc2)C(C)C)c1=O` [Compound 300]?
**A.** Bedstraw plant response rating [1, 17]: 0; Bedstraw plant response rating [1, 18]: 8; Bedstraw plant response rating [1, 19]: 0; Bedstraw plant response rating [1, 20]: 0; Plant response rating, Bedstraw [1, 21]: 0; Bedstraw plant response rating [1, 22]: 0; Blackgrass plant response rating [2, 23]: 0; Blackgrass plant response rating (0 to 10 scale) ([2]; Preemergence, Rate 125 g/ha): 0; Blackgrass plant response rating [2, 17]: 0; Blackgrass plant response rating [2, 18]: 0; Blackgrass plant response rating [2, 19]: 0; Blackgrass plant response rating [2, 20]: 0; Plant response rating, Blackgrass [2, 21]: 0; Blackgrass plant response rating [2, 22]: 0; B. signalgrass plant response rating [3, 23]: 0; B. signalgrass plant response rating (0 to 10 scale, 0 is no effect, 10 is complete control) ([3]; Preemergence, Rate 125 g/ha): 0; B. signalgrass plant response rating [3, 17]: 0; B. signalgrass plant response rating [3, 18]: 2; B. signalgrass plant response rating [3, 19]: 0; B. signalgrass plant response rating [3, 20]: 0; Plant response rating, B. signalgrass [3, 21]: 0; B. signalgrass plant response rating [3, 22]: 0; Cocklebur plant response rating [4, 23]: 0; Cocklebur plant response rating (0 to 10 scale) ([4]; Preemergence, Rate 125 g/ha): 0; Cocklebur plant response rating [4, 17]: 0; Cocklebur plant response rating [4, 19]: 0; Cocklebur plant response rating [4, 20]: 0; Plant response rating, Cocklebur [4, 21]: 0; Cocklebur plant response rating [4, 22]: 0; Corn plant response rating [5, 23]: 0; Corn plant response rating (0 to 10 scale) ([5]; Preemergence, Rate 125 g/ha): 0; Corn plant response rating [5, 17]: 0; Corn plant response rating [5, 18]: 0; Corn plant response rating [5, 19]: 0; Corn plant response rating [5, 20]: 0; Plant response rating, Corn [5, 21]: 0; Corn plant response rating [5, 22]: 0; Crabgrass plant response rating [6, 23]: 0; Crabgrass plant response rating (0 to 10 scale) ([6]; Preemergence, Rate 125 g/ha): 2; Crabgrass plant response rating [6, 17]: 4; Crabgrass plant response rating [6, 18]: 7; Crabgrass plant response rating [6, 19]: 0; Crabgrass plant response rating [6, 20]: 0; Plant response rating, Crabgrass [6, 21]: 0; Giant foxtail plant response rating [7, 23]: 0; Giant foxtail plant response rating (0 to 10 scale) ([7]; Preemergence, Rate 125 g/ha): 5; Giant foxtail plant response rating [7, 17]: 9; Giant foxtail plant response rating [7, 18]: 10; Giant foxtail plant response rating [7, 19]: 0; Giant foxtail plant response rating [7, 20]: 0; Plant response rating, Giant foxtail [7, 21]: 0; Redroot pigweed plant response rating [8, 23]: 0; Redroot pigweed plant response rating (0 to 10 scale) ([8]; Preemergence, Rate 125 g/ha): 0; Redroot pigweed plant response rating [8, 17]: 0; Redroot pigweed plant response rating [8, 18]: 0; Redroot pigweed plant response rating [8, 19]: 0; Redroot pigweed plant response rating [8, 20]: 0; Plant response rating, Redroot pigweed [8, 21]: 0; Soybean plant response rating [9, 23]: 0; Soybean plant response rating (0 to 10 scale) ([9]; Preemergence, Rate 125 g/ha): 0; Soybean plant response rating [9, 17]: 0; Soybean plant response rating [9, 18]: 0; Soybean plant response rating [9, 19]: 1; Soybean plant response rating [9, 20]: 2; Plant response rating, Soybean [9, 21]: 2; Sugarbeets plant response rating [10, 23]: 0; Sugarbeets plant response rating (0 to 10 scale) ([10]; Preemergence, Rate 125 g/ha): 0; Sugarbeets plant response rating [10, 17]: 0; Sugarbeets plant response rating [10, 18]: 0; Sugarbeets plant response rating [10, 19]: 0; Sugarbeets plant response rating [10, 20]: 0; Plant response rating, Sugarbeets [10, 21]: 0; Velvetleaf plant response rating [11, 23]: 0; Velvetleaf plant response rating (0 to 10 scale) ([11]; Preemergence, Rate 125 g/ha): 0; Velvetleaf plant response rating [11, 17]: 0; Velvetleaf plant response rating [11, 18]: 0; Velvetleaf plant response rating [11, 19]: 0; Velvetleaf plant response rating [11, 20]: 0; Plant response rating, Velvetleaf [11, 21]: 0; Wild oats plant response rating [12, 23]: 0; Wild oats plant response rating (0 to 10 scale) ([12]; Preemergence, Rate 125 g/ha): 0; Wild oats plant response rating [12, 17]: 0; Wild oats plant response rating [12, 18]: 3; Wild oats plant response rating [12, 19]: 0; Wild oats plant response rating [12, 20]: 0; Plant response rating, Wild oats [12, 21]: 0; Nutsedge plant response rating [13, 23]: 0; Nutsedge plant response rating (0 to 10 scale) ([13]; Preemergence, Rate 125 g/ha): 0; Nutsedge plant response rating [13, 17]: 0; Nutsedge plant response rating [13, 18]: 0; Nutsedge plant response rating [13, 19]: 0; Nutsedge plant response rating [13, 20]: 0; Plant response rating, Nutsedge [13, 21]: 0; Rice plant response rating [14, 24]: 0; Rice plant response rating [14, 25]: 0; Rice plant response rating [14, 26]: 0; Rice plant response rating [14, 27]: 0; S. Flatsedge plant response rating [15, 24]: 0; S. Flatsedge plant response rating [15, 25]: 0; S. Flatsedge plant response rating [15, 26]: 0; S. Flatsedge plant response rating [15, 27]: 0; Barnyardgrass plant response rating [16, 24]: 0; Barnyardgrass plant response rating [16, 25]: 0; Barnyardgrass plant response rating [16, 26]: 0; Barnyardgrass plant response rating [16, 27]: 0
